According to patent US7297551B2, “Recombinant proteins and peptides for endotoxin biosensors, endotoxin removal, and anti-microbial and anti-endotoxin therapeutics” (priority 1998, dated 2007):
Where two headings read alike, the source gives them in different places. Peptide text beside a SMILES is read from it.

How the values were obtained:
[1] = test system: LPS-induced hTNF-α secretion from THP-1; assay: Inhibition of LPS-induced hTNF-α secretion from PMA-treated THP-1 cells; type: cell-based, human
Method: […] THP-1 cells were grown in RPMI 1640 medium supplemented with 10% FBS, penicillin (100 U/ml) and streptomycin (0.1 mg/ml), at 37° C. in a humidified environment in the presence of 5% CO2. The cells were maintained at a density between 2.5×10^5 and 2.5×10^6 cells/ml.
THP-1 cells were prepared for experiment by addition of a concentrated stock solution of phorbol myristate acetate (PMA, 0.3. mg/ml in dimethyl sulfoxide) to cell suspension to give a final concentration of 30 ng/ml PMA and 0.01% dimethyl sulfoxide (25). PMA-treated cell suspensions were immediately plated into 96-well microtitre plate at a density of 4×10^5 cells/ml and allowed to differentiate for 48 hours at 37° C. […] At indicated times, the culture medium was collected.

[2] = Protection of galactosamine-sensitized mice from LPS-induced lethality; type: in vivo, C57BL/6J mice; conditions: 75 μg peptide, 2 ng LPS pre-incubated with peptide 30 minutes
Method: The anti-endotoxin potency of SSCrFCES was investigated in C57BL/6J mice. Mice are typically resistant to endotoxin. However, the sensitivity of mice to endotoxin can be enhanced >1,000-fold by co-injection with a liver-specific inhibitor, galactosamine (31). […] […] Lethality was observed over 3 days after injection. Statistical analysis were performed using the Kaplan-Meier test (32) and log rank pairwise test.

P. aeruginosa = assay: Microbicidal concentration (MBC) assay; type: cell-based, Pseudomonas aeruginosa
Method: Test strains cultured on Mueller-Hinton agar (MHA, Becton Dickinson, USA) were inoculated into 10 ml Mueller-Hinton broth (MHB, Becton Dickinson, USA) and grown overnight at 37° C. in a shaker incubator (Model 4536, Forma Scientific, Inc., USA) at 230 rpm. Overnight broth cultures were diluted to give a final cell density of 10^5 colony forming units/ml (cfu/ml). One hundred microliters of the bacterial suspension was dispensed into sterile polypropylene 8-strip PCR-tubes (Quality Scientific Plastics, USA). Eleven microliters of serially diluted sushi peptides, ranging in final concentrations of 0.03-4 μg/ml, were then added. The peptides were constituted at 10 times the required test concentrations in 0.01% acetic acid and 0.2% bovine serum albumin (BSA). Positive controls were cultures without test peptides. Uninoculated MHB was used as negative control. All tests were carried out in triplicate.
Cultures were incubated at 37° C. for 18-24 h, with the PCR-tubes held in horizontal position and shaken at 230 rpm. Cell counts were determined by standard drop-count method. The killing efficiency for the four sushi peptides were calculated based on standard drop-count method.

P. aeruginosa ATCC 27853 = assay: Killing rate assay; type: cell-based, Pseudomonas aeruginosa; conditions: peptides at 0.06 μg/ml, initial 10^9 cfu/ml
Excerpt: The killing rate assay was adapted from the MBC test above, with different contact time of peptides with the bacteria arrested at regular intervals and plated for colony count. An initial density of 10^9 cfu/ml was used. […] This is one of the important features of an effective therapeutic agent.

Human erythrocytes = assay: Hemolysis assay, human erythrocytes; type: cell-based; conditions: at 100 μg/ml
Method: Human and rabbit erythrocytes were both used to test the hemolytic activities of the peptides. Whole blood was collected in heparinized sterile syringe, transferred to sterile borosilicate tube and centrifuged at 1200 g for 5 minutes at 4° C. The supernatant including the leukocytes above the erythrocyte pellet was discarded. The erythrocytes were washed 3 times using three volumes of prechilled pyrogen-free saline (PFS). An erythrocyte suspension at 0.4% was prepared for the hemolysis assay. Serial two-fold dilutions of the peptides was prepared in PFS and 100 μl aliquots were added to equal volumes of 0.4% erythrocyte solution in a 96-well microtiter plate (Nunclon™ Δ surface, Nunc) to give final peptide concentrations ranging from 6 to 100 μg/ml. The mixtures were incubated at 37° C. for 1 h. The intact erythrocytes were then pelleted by centrifuging at 1000 g for 5 min. One hundred μl of the supernatant was transferred to a new 96-well microtiter plate and the amount of hemoglobin released into the supernatant was determined by reading the absorbance at 414 nm using a SPECTRAmax™ 340 plate reader with SOFTmax PRO™ version 1.2.0. A positive control with 100 μl of 0.4% erythrocyte lysed in 1% Triton-X 100 was taken as 100% lysis. The negative control was the erythrocytes in PFS alone, which gave minimal lysis. This was taken as 0%.

[3] = Hill's plot for interaction between synthetic peptides and lipid A; type: binding; conditions: number of peptide molecules to 1 LPS molecule

Question: With `CC[C@H](C)[C@H](NC(=O)[C@H](CCCCN)NC(=O)[C@H](C)NC(=O)[C@H](CCCCN)NC(=O)CNC(=O)[C@H](CCCCN)NC(=O)[C@H](CC(C)C)NC(=O)[C@H](CCCCN)NC(=O)[C@H](Cc1ccccc1)NC(=O)CN)C(=O)N[C@@H](CO)C(=O)N[C@@H](CS)C(=O)N[C@@H](CC(C)C)C(=O)N1CCC[C@H]1C(=O)N[C@@H](CC(N)=O)C(=O)NCC(=O)N[C@@H](CCC(N)=O)C(=O)N[C@@H](Cc1c[nH]c2ccccc12)C(=O)N[C@@H](CO)C(=O)N[C@@H](CC(N)=O)C(=O)N[C@@H](Cc1ccccc1)C(=O)N1CCC[C@H]1C(=O)N1CCC[C@H]1C(=O)N[C@@H](CCCCN)C(=O)N[C@@H](CS)C(=O)N[C@H](C(=O)N[C@@H](CCCNC(=N)N)C(=O)N[C@@H](CCC(=O)O)C(=O)N[C@@H](CS)C(=O)N[C@@H](C)C(=O)N[C@@H](CCSC)C(=O)N[C@H](C(=O)N[C@@H](CO)C(=O)N[C@@H](CO)C(=O)O)C(C)C)[C@@H](C)CC` [S1Δ] (H-GFKLKGKAKISCLPNGQWSNFPPKCIRECAMVSS-OH; N-terminus and C-terminus assumed) as the compound, how does the IC50 ([1]; peptide needed for 50% suppression, read-out: Suppression of LPS-Induced cytokine TNF-α (50%)) read?
Answer: 53 µM

Question: And the IC50 ([1]; read-out: 50% inhibition of LPS-induced TNF-α release, 10 ng/ml LPS, serum-free)?
Answer: 53.3 µM

Question: And the “Mouse Protection Assay” value [2]?
Answer: 40% at 75

Question: And the “Anti-microbial Potency P. aeruginosa MBC90” value (P. aeruginosa; MBC)?
Answer: 0.06 µg/mL

Question: What about the MBC90 (P. aeruginosa; P. aeruginosa) of the same compound?
Answer: (16 nM)

Question: What about the “Killing rate (time to achieve MBC90)” value (P. aeruginosa ATCC 27853) of the same compound?
Answer: 7 min

Question: And the Hemolytic activity (Human erythrocytes)?
Answer: negligible haemolysis

Question: And the “Stoichiometry of Binding Cooperativity Hill's Coefficient” value [3]?
Answer: 1.06
